Square brackets hold non-standard residues; d marks the D form. Peptide text beside a SMILES is read from it. Orn(N5-OH,N5-Ac) = CC(=O)N(O)CCC[C@H](N)C(=O)O
System: Aspergillus fumigatus FP1305
Assay: Antifungal activity, broth microdilution method
Assay type: cell-based
Description: Antifungal activities for test fungi shown in Table 15 was determined by a broth microdilution method (Hikaru Kume and Toshikazu Yamazaki, Clinical Microbiology, Vol. 21, No. 5, pp. 573-580, 1994).

CC(=O)N([O-])CCC[C@@H]1NC(=O)CNC(=O)CNC(=O)CNC(=O)[C@H](CCCN([O-])C(C)=O)NC(=O)[C@H](CCCN([O-])C(C)=O)NC1=O.[Fe+3] [ferrichrome, Ferrichrome] (cyclo(GGG[Orn(N5-OH,N5-Ac)][Orn(N5-OH,N5-Ac)][Orn(N5-OH,N5-Ac)]))
MEC (minimum effective concentration): ≥ 50 µg/mL

Source: patent publication US8598115B2, “Cyclic compound and salt thereof” (Astellas Pharma Inc., priority 2008, dated 2013)
